In the oligonucleotide strings, read from the 5' end, every base follows the letter of its sugar. An asterisk marks phosphorothioate; unmarked linkages are phosphodiester. Other units and linkages are bracketed, terminal groups are in braces. A string of capitals states the bases alone. e = 2'-O-(2-methoxyethyl) (MOE); [5mC] = 5-methylcytosine; d = 2'-deoxy (DNA)
Test system: human Factor XI mRNA
Assay: Dose-dependent inhibition in HepG2 cells, lipofectin (Example 4)
Type: cell-based
Conditions: 9.375 nM, 16 hours
Description: (§1) Cells were plated at a density of 10,000 cells per well and transfected using lipofectin reagent with 9.375 nM, 18.75 nM, 37.5 nM and 75 nM concentrations of antisense oligonucleotide, as specified in Table 9. After a treatment period of approximately 16 hours, RNA was isolated from the cells and Factor XI mRNA levels were measured by quantitative real-time PCR. Human Factor XI primer probe set RTS 2966 was used to measure mRNA levels. Factor XI mRNA levels were adjusted according to total RNA content, as measured by RIBOGREEN®. Results are presented as percent inhibition of Factor XI, relative to untreated control cells.

Substance | percent inhibition of Factor XI mRNA, relative to untreated control cells
416923 (antisense eT*eG*e[5mC]*dA*d[5mC]*dA*dG*dT*dT*dT*d[5mC]*dT*dG*dG*d[5mC]*dA*dG*eG*e[5mC]*e[5mC]) [compound 416923] | 36%
416931 (antisense eG*eG*e[5mC]*dA*dT*dT*dG*dG*dT*dG*d[5mC]*dA*d[5mC]*dA*dG*dT*dT*eT*e[5mC]*eT) [compound 416931] | 44%
416924 (antisense eG*eT*eG*d[5mC]*dA*d[5mC]*dA*dG*dT*dT*dT*d[5mC]*dT*dG*dG*d[5mC]*dA*eG*eG*e[5mC]) [compound 416924] | 25%
416908 (antisense eG*e[5mC]*eA*dA*d[5mC]*d[5mC]*dG*dG*dG*dA*dT*dG*dA*dT*dG*dA*dG*eT*eG*e[5mC]) [compound 416908] | 36%

Same assay, conditions: 18.75 nM, 16 hours

Substance | percent inhibition of Factor XI mRNA, relative to untreated control cells
416923 (antisense eT*eG*e[5mC]*dA*d[5mC]*dA*dG*dT*dT*dT*d[5mC]*dT*dG*dG*d[5mC]*dA*dG*eG*e[5mC]*e[5mC]) [compound 416923] | 47%
416931 (antisense eG*eG*e[5mC]*dA*dT*dT*dG*dG*dT*dG*d[5mC]*dA*d[5mC]*dA*dG*dT*dT*eT*e[5mC]*eT) [compound 416931] | 39%
416924 (antisense eG*eT*eG*d[5mC]*dA*d[5mC]*dA*dG*dT*dT*dT*d[5mC]*dT*dG*dG*d[5mC]*dA*eG*eG*e[5mC]) [compound 416924] | 38%
416908 (antisense eG*e[5mC]*eA*dA*d[5mC]*d[5mC]*dG*dG*dG*dA*dT*dG*dA*dT*dG*dA*dG*eT*eG*e[5mC]) [compound 416908] | 57%

Same assay, conditions: 37.5 nM, 16 hours

Substance | percent inhibition of Factor XI mRNA, relative to untreated control cells
416923 (antisense eT*eG*e[5mC]*dA*d[5mC]*dA*dG*dT*dT*dT*d[5mC]*dT*dG*dG*d[5mC]*dA*dG*eG*e[5mC]*e[5mC]) [compound 416923] | 60%
416931 (antisense eG*eG*e[5mC]*dA*dT*dT*dG*dG*dT*dG*d[5mC]*dA*d[5mC]*dA*dG*dT*dT*eT*e[5mC]*eT) [compound 416931] | 57%
416924 (antisense eG*eT*eG*d[5mC]*dA*d[5mC]*dA*dG*dT*dT*dT*d[5mC]*dT*dG*dG*d[5mC]*dA*eG*eG*e[5mC]) [compound 416924] | 56%
416908 (antisense eG*e[5mC]*eA*dA*d[5mC]*d[5mC]*dG*dG*dG*dA*dT*dG*dA*dT*dG*dA*dG*eT*eG*e[5mC]) [compound 416908] | 67%

Same assay, conditions: 75 nM, 16 hours

Substance | percent inhibition of Factor XI mRNA, relative to untreated control cells
416923 (antisense eT*eG*e[5mC]*dA*d[5mC]*dA*dG*dT*dT*dT*d[5mC]*dT*dG*dG*d[5mC]*dA*dG*eG*e[5mC]*e[5mC]) [compound 416923] | 67%
416931 (antisense eG*eG*e[5mC]*dA*dT*dT*dG*dG*dT*dG*d[5mC]*dA*d[5mC]*dA*dG*dT*dT*eT*e[5mC]*eT) [compound 416931] | 71%
416924 (antisense eG*eT*eG*d[5mC]*dA*d[5mC]*dA*dG*dT*dT*dT*d[5mC]*dT*dG*dG*d[5mC]*dA*eG*eG*e[5mC]) [compound 416924] | 59%
416908 (antisense eG*e[5mC]*eA*dA*d[5mC]*d[5mC]*dG*dG*dG*dA*dT*dG*dA*dT*dG*dA*dG*eT*eG*e[5mC]) [compound 416908] | 76%

Test system: human Factor XI mRNA
Assay: Antisense inhibition in HepG2 cells by microwalk gapmers, 75 nM, lipofectin (Example 3)
Type: cell-based
Conditions: HepG2 cells, 75 nM, oligonucleotides targeted to nucleobases 1018 to 1042 of SEQ ID NO: 1
In short: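 HepG2 cells (10,000 per well) were transfected with 75 nM gapmer using lipofectin and treated for about 24 h. Factor XI mRNA was quantified by real-time PCR, normalized to RiboGreen total RNA and expressed as percent inhibition versus untreated controls.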

Substance | % inhibition of human Factor XI mRNA levels
416908 (antisense eG*e[5mC]*eA*dA*d[5mC]*d[5mC]*dG*dG*dG*dA*dT*dG*dA*dT*dG*dA*dG*eT*eG*e[5mC]) [compound 416908] | 98%

Same assay, conditions: HepG2 cells, 75 nM, oligonucleotides targeted to nucleobases 1275 to 1318 of SEQ ID NO: 1

Substance | % inhibition of human Factor XI mRNA levels
416923 (antisense eT*eG*e[5mC]*dA*d[5mC]*dA*dG*dT*dT*dT*d[5mC]*dT*dG*dG*d[5mC]*dA*dG*eG*e[5mC]*e[5mC]) [compound 416923] | 96%
416931 (antisense eG*eG*e[5mC]*dA*dT*dT*dG*dG*dT*dG*d[5mC]*dA*d[5mC]*dA*dG*dT*dT*eT*e[5mC]*eT) [compound 416931] | 96%
416924 (antisense eG*eT*eG*d[5mC]*dA*d[5mC]*dA*dG*dT*dT*dT*d[5mC]*dT*dG*dG*d[5mC]*dA*eG*eG*e[5mC]) [compound 416924] | 97%

Test system: human Factor XI mRNA
Assay: Dose-dependent inhibition in HepG2 cells, electroporation (Example 4)
Type: cell-based
Conditions: 0.7 μM, 16 hours
Description: as §1, with “The gapmers were also transfected via electroporation and their dose dependent inhibition of human Factor XI mRNA was measured. Cells” for “Cells”, “20,000” for “10,000”, “via electroporation” for “using lipofectin reagent”, “0.7 μM, 2.2 μM, 6.7 μM,” for “9.375 nM, 18.75 nM, 37.5 nM”, “20 μM” for “75 nM”, “10.” for “9.”

Substance | percent inhibition of Factor XI mRNA, relative to untreated control cells
416923 (antisense eT*eG*e[5mC]*dA*d[5mC]*dA*dG*dT*dT*dT*d[5mC]*dT*dG*dG*d[5mC]*dA*dG*eG*e[5mC]*e[5mC]) [compound 416923] | 15%
416931 (antisense eG*eG*e[5mC]*dA*dT*dT*dG*dG*dT*dG*d[5mC]*dA*d[5mC]*dA*dG*dT*dT*eT*e[5mC]*eT) [compound 416931] | 7%
416924 (antisense eG*eT*eG*d[5mC]*dA*d[5mC]*dA*dG*dT*dT*dT*d[5mC]*dT*dG*dG*d[5mC]*dA*eG*eG*e[5mC]) [compound 416924] | 22%
416908 (antisense eG*e[5mC]*eA*dA*d[5mC]*d[5mC]*dG*dG*dG*dA*dT*dG*dA*dT*dG*dA*dG*eT*eG*e[5mC]) [compound 416908] | 7%

Same assay, conditions: 2.2 μM, 16 hours

Substance | percent inhibition of Factor XI mRNA, relative to untreated control cells
416923 (antisense eT*eG*e[5mC]*dA*d[5mC]*dA*dG*dT*dT*dT*d[5mC]*dT*dG*dG*d[5mC]*dA*dG*eG*e[5mC]*e[5mC]) [compound 416923] | 30%
416931 (antisense eG*eG*e[5mC]*dA*dT*dT*dG*dG*dT*dG*d[5mC]*dA*d[5mC]*dA*dG*dT*dT*eT*e[5mC]*eT) [compound 416931] | 24%
416924 (antisense eG*eT*eG*d[5mC]*dA*d[5mC]*dA*dG*dT*dT*dT*d[5mC]*dT*dG*dG*d[5mC]*dA*eG*eG*e[5mC]) [compound 416924] | 40%
416908 (antisense eG*e[5mC]*eA*dA*d[5mC]*d[5mC]*dG*dG*dG*dA*dT*dG*dA*dT*dG*dA*dG*eT*eG*e[5mC]) [compound 416908] | 58%

Same assay, conditions: 6.7 μM, 16 hours

Substance | percent inhibition of Factor XI mRNA, relative to untreated control cells
416923 (antisense eT*eG*e[5mC]*dA*d[5mC]*dA*dG*dT*dT*dT*d[5mC]*dT*dG*dG*d[5mC]*dA*dG*eG*e[5mC]*e[5mC]) [compound 416923] | 60%
416931 (antisense eG*eG*e[5mC]*dA*dT*dT*dG*dG*dT*dG*d[5mC]*dA*d[5mC]*dA*dG*dT*dT*eT*e[5mC]*eT) [compound 416931] | 60%
416924 (antisense eG*eT*eG*d[5mC]*dA*d[5mC]*dA*dG*dT*dT*dT*d[5mC]*dT*dG*dG*d[5mC]*dA*eG*eG*e[5mC]) [compound 416924] | 63%
416908 (antisense eG*e[5mC]*eA*dA*d[5mC]*d[5mC]*dG*dG*dG*dA*dT*dG*dA*dT*dG*dA*dG*eT*eG*e[5mC]) [compound 416908] | 74%

Same assay, conditions: 20 μM, 16 hours

Substance | percent inhibition of Factor XI mRNA, relative to untreated control cells
416923 (antisense eT*eG*e[5mC]*dA*d[5mC]*dA*dG*dT*dT*dT*d[5mC]*dT*dG*dG*d[5mC]*dA*dG*eG*e[5mC]*e[5mC]) [compound 416923] | 90%
416931 (antisense eG*eG*e[5mC]*dA*dT*dT*dG*dG*dT*dG*d[5mC]*dA*d[5mC]*dA*dG*dT*dT*eT*e[5mC]*eT) [compound 416931] | 82%
416924 (antisense eG*eT*eG*d[5mC]*dA*d[5mC]*dA*dG*dT*dT*dT*d[5mC]*dT*dG*dG*d[5mC]*dA*eG*eG*e[5mC]) [compound 416924] | 70%
416908 (antisense eG*e[5mC]*eA*dA*d[5mC]*d[5mC]*dG*dG*dG*dA*dT*dG*dA*dT*dG*dA*dG*eT*eG*e[5mC]) [compound 416908] | 89%

— patent US20120083522A1, “MODULATION OF INFLAMMATORY RESPONSES BY FACTOR XI” (Isis Pharmaceuitcals, inc., priority 2009, published 2012)
